Measurements taken from PubChem BioAssay AID2060511 (Molecular Pharmacology Branch, DTP, NCI, 2025).
Several values for one entry are separate records, joined by “and”; a condition that tells them apart may be missing. Equal entries are not always repeated.

Test system: 422866-222-R5-J1-PDC spheroids with HUVEC/MSC, viability
Assay: Anticancer human tumor 422866-222-R5-J1-PDC patient-derived pancreatic adenocarcinoma cell line growth inhibition [GQUAD]
Details: for IC50: curve of first compound; for viability, T/C: stronger effect = lower value
Source text: DNA G-quadruplex Stabilizer Agents in Combinations in Complex Spheroids
A high-throughput screen of multi-cell type tumor spheroids was designed to identify active combinations of DNA G-quadruplex stabilizer agents and targeted small molecules. Complex spheroids include a stromal component modeled by human endothelial cells (HUVEC) and fibroblasts modeled by human mesenchymal stem cells (MSCs). The concentration ranges selected for each drug and investigational agent were based upon clinically achievable concentrations if the clinical Cmax of the agent was known.
Compounds. The drugs and investigational agents: pidnarulex (CX-5461; NSC782164), APTO-253 (NSC789042), BRACO-19 (NSC847499), peposertib (NSC802822), ceralasertib (NSC780249), elimusertib (NSC800525), camonsertib (NSC841442), AZD-1390 (NSC803789), olaparib (NSC753686), talazoparib (NSC767125), ART-558 (NSC835418), sotorasib (NSC818433), MRTX-1133 (NSC836407), SN-38 (NSC673596), topotecan (NSC609699), etoposide (NSC141540), doxorubicin (NSC123127), gemcitabine (NSC613327), 5-fluorouracil (NSC19893), paclitaxel (NSC125973), vemurafenib (NSC761431), panobinostat (NSC761190), R-306465 (JNJ-16241199; NSC773264), adavosertib (NSC754352), TP-3654 (NSC805149), carboplatin (NSC241240), KSQ-4279 (NSC840948), and staurosporine (NSC755774) were obtained from the National Cancer Institute (NCI) Developmental Therapeutics Program Chemical Repository (34). The FDA-approved anticancer drug set is available from the NCI Developmental Therapeutics Program. […] The stock solutions were prepared in dimethyl sulfoxide (DMSO, Sigma-Aldrich, St. Louis, MO, cat. D2650) at 800-fold the tested concentration and stored at -70 degrees C prior to their use. All drugs and investigational agents were tested over a range starting from a high concentration at or near the clinical Cmax and decreasing in half-log increments. If the clinical Cmax for an agent had not been determined, the highest concentration tested was 10 microM.
2.3 Cell Culture. All cells were maintained in an incubator at 37 degrees C and 5% CO2 with 95% humidity. The PDC lines were cultured according to standard operating procedures established by the NCI PDMR. All PDCs were thawed and cultured in Matrigel-coated flasks prepared with a working solution of 1X Ham's F-12 nutrient mix, without supplementation (Invitrogen, cat. 11765054), 100 U/mL penicillin-streptomycin (Invitrogen, cat. 15140122), and 2.5% Matrigel (Corning Inc., cat. 354248) for the first three passages. The 857933-349-R-J2-PDC line was cultured in 6C/Colon 1B media, which includes advanced DMEM/F-12 (Thermo Fisher Scientific, cat. 12634028), 10 mM HEPES (Thermo Fisher Scientific, cat. 15630080), 1X GlutaMAX supplement (Thermo Fisher Scientific, cat. 35050061), 0.1 mg/mL primocin (InvivoGen, cat. ant-pm-2), 10% defined fetal bovine serum, heat inactivated (HyClone Laboratories Inc., cat. SH30070.03HI), 50% L-WRN conditioned media (ATCC, cat. CRL-3276), 1.25 mM N-Acetyl-L-cysteine (Sigma-Aldrich, cat. A9165), 10 mM nicotinamide (Sigma-Aldrich, cat. N0636), 1X B-27 supplement (Thermo Fisher Scientific, cat. 17504044), 1X N-2 supplement (Thermo Fisher Scientific, cat. 17502048), 10 microM Y-27632 dihydrochloride (Tocris Bioscience, cat. 1254), and 50 ng/mL human EGF recombinant protein (Thermo Fisher Scientific, cat. PHG0311). The 485176-168-R4-J1-PDC line was cultured in Panc media, which includes all 6C/Colon 1B media components plus 100 ng/mL human FGF-10 (Thermo Fisher Scientific, cat. 100-26), 500 nM SB-431542 (Selleckchem, cat. S1067), and gastrin (Tocris, cat. 3006).
[…]

[1] = second compound 0.0316 µM, first compound 0.0316 µM
[2] = second compound 0.0316 µM, first compound 0.316 µM
[3] = second compound 0.1 µM, first compound 0.0316 µM
[4] = second compound 0.1 µM, first compound 0.316 µM
[5] = second compound 0.316 µM, first compound 0.0316 µM
[6] = second compound 0.316 µM, first compound 0.316 µM
[7] = second compound 1 µM, first compound 0.0316 µM
[8] = second compound 1 µM, first compound 0.316 µM
[9] = second compound 3.16 µM, first compound 0.0316 µM
[10] = second compound 3.16 µM, first compound 0.316 µM
[11] = second compound 10 µM, first compound 0.0316 µM
[12] = second compound 10 µM, first compound 0.316 µM
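Further: spheroids exposed to compounds for seven days before reading.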
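Wherever viability, T/C is given: percent viability relative to DMSO vehicle control taken as 100%.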

CC(C)n1c(=O)n(C)c2cnc3cc(F)c(-c4ccc(OCCCN5CCCCC5)nc4)cc3c21 + Cc1cnc(CNC(=O)c2c(=O)c3ccc(N4CCCN(C)CC4)nc3n3c2sc2ccccc23)cn1
IC50 (second compound 0.0316 µM): > 10000 nM
IC50 (second compound 0.1 µM): > 10000 nM
IC50 (second compound 0.316 µM): > 10000 nM
IC50 (second compound 1 µM): > 10000 nM
IC50 (second compound 3.16 µM): > 10000 nM
IC50 (second compound 10 µM): > 10000 nM
viability, T/C [1]: 81.6%
viability, T/C (second compound 0.0316 µM, first compound 0.1 µM): 74.2%
viability, T/C [2]: 75%
viability, T/C (second compound 0.0316 µM, first compound 1 µM): 74%
viability, T/C (second compound 0.0316 µM, first compound 3.16 µM): 76.7%
viability, T/C (second compound 0.0316 µM, first compound 10 µM): 58.5%
viability, T/C [3]: 84.9%
viability, T/C (second compound 0.1 µM, first compound 0.1 µM): 85.2%
viability, T/C [4]: 75%
viability, T/C (second compound 0.1 µM, first compound 1 µM): 75.6%
viability, T/C (second compound 0.1 µM, first compound 3.16 µM): 90.8%
viability, T/C (second compound 0.1 µM, first compound 10 µM): 50.9%
viability, T/C [5]: 86.2%
viability, T/C (second compound 0.316 µM, first compound 0.1 µM): 93%
viability, T/C [6]: 96%
viability, T/C (second compound 0.316 µM, first compound 1 µM): 80.6%
viability, T/C (second compound 0.316 µM, first compound 3.16 µM): 90.8%
viability, T/C (second compound 0.316 µM, first compound 10 µM): 69.1%
viability, T/C [7]: 87.5%
viability, T/C (second compound 1 µM, first compound 0.1 µM): 85.8%
viability, T/C [8]: 87.3%
viability, T/C (second compound 1 µM, first compound 1 µM): 96%
viability, T/C (second compound 1 µM, first compound 3.16 µM): 96.7%
viability, T/C (second compound 1 µM, first compound 10 µM): 71%
viability, T/C [9]: 74.5%
viability, T/C (second compound 3.16 µM, first compound 0.1 µM): 90.5%
viability, T/C [10]: 81.1%
viability, T/C (second compound 3.16 µM, first compound 1 µM): 94.2%
viability, T/C (second compound 3.16 µM, first compound 3.16 µM): 92.6%
viability, T/C (second compound 3.16 µM, first compound 10 µM): 77.4%
viability, T/C [11]: 70.9%
viability, T/C (second compound 10 µM, first compound 0.1 µM): 76.5%
viability, T/C [12]: 82.2%
viability, T/C (second compound 10 µM, first compound 1 µM): 82.3%
viability, T/C (second compound 10 µM, first compound 3.16 µM): 85.5%
viability, T/C (second compound 10 µM, first compound 10 µM): 62.5%

CCCS(=O)(=O)Nc1ccc(F)c(C(=O)c2c[nH]c3ncc(-c4ccc(Cl)cc4)cc23)c1F
viability, T/C (compound 0.0316 µM): 96.7% and 101% and 93.4%
viability, T/C (compound 0.1 µM): 99.6% and 95.4% (2×)
viability, T/C (compound 0.316 µM): 60% and 140% and 121%
viability, T/C (compound 1 µM): 45.6% and 153% and 136%
viability, T/C (compound 3.16 µM): 32.6% and 184% and 167%
viability, T/C (compound 10 µM): 32.6% and 108% and 52.1%

CC[C@@]1(O)C(=O)OCc2c1cc1n(c2=O)Cc2cc3c(CN(C)C)c(O)ccc3nc2-1 + Cc1[nH]c2ccc(F)cc2c1-c1nc2c3cccnc3c3ncccc3c2[nH]1
IC50 (second compound 0.0316 µM): 64.6 nM
IC50 (second compound 0.1 µM): 86.6 nM
IC50 (second compound 0.316 µM): 128 nM
IC50 (second compound 1 µM): 102 nM
IC50 (second compound 3.16 µM): 79.7 nM
IC50 (second compound 10 µM): 53 nM
viability, T/C (second compound 0.0316 µM, first compound 0.000999 µM): 92.9%
viability, T/C (second compound 0.0316 µM, first compound 0.00316 µM): 95.8%
viability, T/C (second compound 0.0316 µM, first compound 0.00999 µM): 92.8%
viability, T/C [1]: 56.9%
viability, T/C (second compound 0.0316 µM, first compound 0.0999 µM): 46.2%
viability, T/C [2]: 45.2%
viability, T/C (second compound 0.1 µM, first compound 0.000999 µM): 104%
viability, T/C (second compound 0.1 µM, first compound 0.00316 µM): 90.8%
viability, T/C (second compound 0.1 µM, first compound 0.00999 µM): 86.2%
viability, T/C [3]: 61.7%
viability, T/C (second compound 0.1 µM, first compound 0.0999 µM): 48.8%
viability, T/C [4]: 36.8%
viability, T/C (second compound 0.316 µM, first compound 0.000999 µM): 99.8%
viability, T/C (second compound 0.316 µM, first compound 0.00316 µM): 88.4%
viability, T/C (second compound 0.316 µM, first compound 0.00999 µM): 85.5%
viability, T/C [5]: 71.7%
viability, T/C (second compound 0.316 µM, first compound 0.0999 µM): 49.2%
viability, T/C [6]: 43.4%
viability, T/C (second compound 1 µM, first compound 0.000999 µM): 92.7%
viability, T/C (second compound 1 µM, first compound 0.00316 µM): 98.5%
viability, T/C (second compound 1 µM, first compound 0.00999 µM): 76.2%
viability, T/C [7]: 74.5%
viability, T/C (second compound 1 µM, first compound 0.0999 µM): 46.4%
viability, T/C [8]: 39.8%
viability, T/C (second compound 3.16 µM, first compound 0.000999 µM): 83.7%
viability, T/C (second compound 3.16 µM, first compound 0.00316 µM): 97.3%
viability, T/C (second compound 3.16 µM, first compound 0.00999 µM): 78.4%
viability, T/C [9]: 69.2%
viability, T/C (second compound 3.16 µM, first compound 0.0999 µM): 44.4%
viability, T/C [10]: 38%
viability, T/C (second compound 10 µM, first compound 0.000999 µM): 69.7%
viability, T/C (second compound 10 µM, first compound 0.00316 µM): 79.2%
viability, T/C (second compound 10 µM, first compound 0.00999 µM): 73.5%
viability, T/C [11]: 56.3%
viability, T/C (second compound 10 µM, first compound 0.0999 µM): 42.8%
viability, T/C [12]: 40.8%
